Consider one molecule from US20170217982A1, “Compound isolated from Pseudolysimachion rotundum var. subintegrum, the composition comprising the same for treating allergic disease, inflammatory disease, asthma or chronic obstructive pulmonary disease and the use thereof” (YUNGJIN PHARMACEUTICAL CO., LTD, priority 2014, published 2017).

Values joined by “and” are separate entries in the source; they are usually repeats but may differ in a detail not shown here. Identical values can stand only once.

One series concerns NF-kappa B. In words: NF-kappa B luciferase reporter assay in H292 cells. In kind it is cell-based, human. The following applies: 10 μm, TNF-alpha 20 ng/ml. As to the method: NF-kappa B luciferase reporter assay was performed by following procedure disclosed in the literature (Pulin Che et al., Assay Drug Dev. Technol., 2012, 10, 61-68).
In order to establish the stable cells for NF-kappa B luciferase reporter assay, NF-kappa B response element was cloned into vector (pGL4.32 vector, E849A, Promega) according to the manufacture's protocol and infected to the cell (H292 cells, CRL-1848, ATCC) using by Lipofectamine 2000 (11668-019, Invitrogen). The infected cell was selected using by hygromycin (400 μg/ml) for 2 weeks and the colonies were individually cloned and proliferated. […] The test sample was pre-treated in a pre-determined concentration and 20 ng/ml of TNF-alpha was treated therewith for 12 hours. The activity of luciferase enzyme was determined by E6110 kit (OneGlo Luciferase Assay kit, Promega) and DMSO was used as a vehicle control.
The stably expressed H292 cells, a […] human bronchial epithelium cell, with luciferase reporter vector pGL4.32 (luc2P/NF-KB-RE/Hygro, Promega Company) were established prior to following experiment. […] The activation degree of luciferase was determined by One-glow Luciferase Assay system (Promega Company). […] The luminescence was determined by Microplate Luminometer LB 96V (EG&G Berthold company) for 0.5 sec and the result was shown in Table 5 and FIG. 3.
A general note: Reporter assays use an easily measured gene product as a stand-in for the process of interest.

For another series, the system named is H292 cell. In words: Evaluation of cytotoxicity in H292 cell (CCK-8). In kind it is cell-based, human. As to conditions: for H292 cell viability (%, mean ± variation): 24 hours, CCK-8. How it is done: In order to determine the cytotoxicity of inventive compound, following preliminary test was performed by the method disclosed in the literature (Shiyama et al., Talanta, 1997, 44, 1299-1305; Tominaga et al., Anal. Commun., 1999, 36, 47-50).
HT1080 (CRL-12012), H292 (CRL-1848) and murine EL4 cells (TIB-39) were purchased from company (American Type Culture Collection).
HT1080 (CRL-12012) and murine EL4 cells were cultured in DMEM medium (SB30243.01, Dulbecco's modified Eagle's medium; DMEM, HyClone) supplemented with 10% FBS (Fetal Bovine Serum; Gibco) and antibiotic (100 units/ml penicillin+100 units/ml streptomycin). H292 cell was cultured in RPMI medium (SH30027.01, RPMI 1640, Gibco) supplemented with 10% FBS and antibiotic. The cells were cultures under the condition of humidified 5% CO2 atmosphere at 37° C. PMA (P8139, Phorbol 12-myristate 13-acetate) was purchased from the company (Sigma Chemical Co., St. Louis, Mo.) and TNF-α is from the company (300-01A, PeproTech, NJ USA Inc.) to use in the experiment.
H292 cell line, a human hung mucosal cancer cell line, was suspended in 10% FBS-supplemented RPMI medium in a concentration of 5×10^4 cells/ml, and 100 μl of the suspension was inoculated into 96 well plates to adhere cell to the plate for 12 hours. Various concentrations of test sample (KS 534 compound) were treated therewith and cultured for 24 hours. 10 μL of CCK-8 solution was mixed with 90 μL of the medium and 100 μL of solution was added to each well. After reacting from 30 mins to 4 hours, the absorbance of the solution was determined at 570 nm. The cell viability was calculated according to following Math formulae 1 based on negative control group treated with 0.2% DMSO and the result was shown in Table 2.
Cell viability (%)=OD 570 nm (test group)/OD 570 nm (negative control group)×100 Math formulae 1

`O=C(CO)O[C@@H]1O[C@@H]2C[C@H]3[C@H](OC(=O)c4ccc(O)c(O)c4)[C@@H](Cl)[C@@](O)(CO2)[C@@H]13` [KS-534, (3R,5S,5aS,6R,7S,8R,8aS)-8-chloro-8a-hydroxy-5-(2-hydroxyacetoxy) hexahydro-1H-3,6-methanocyclopenta[e][1,3]dioxepin-7-yl3,4-dihydroxybenzoate]: the “Inhibitory ratio (%) of NF-kappa B activity” value in the series with NF-kappa B came out at 36.65%. Besides, the “NF-kappa B activity (relative % comparing with TNF-alpha treatment group)” value with NF-kappa B is 63.35% and 63.35 ± 6.18%. The “H292 cell viability (%, mean ± variation)” value turned out to be 101.88 ± 3.71% in the series with H292 cell (2.5 μm), 102.46 ± 3.96% in the series on H292 cell (5 μm), 99.89 ± 4.79% in the series on H292 cell (10 μm) and 97.87 ± 2.92% with H292 cell (20 μm). Besides, the “cytotoxicity in H292 cell” value in the series on H292 cell (at less than 20 μm) was “did not show cytotoxicity”.
